Data reported in ChEMBL document CHEMBL5241093, “Recent advances in the design and discovery of synthetic tyrosinase inhibitors” (Eur J Med Chem, 2021).

Key:
Tyrosinase [1] = target: T1, Tyrosinase (Agaricus bisporus, UniProt O42713); assay: Inhibition of mushroom tyrosinase using L-DOPA as substrate preincubated for 10 mins followed by substrate addition measured after 20 mins by microtitre plate reader analysis
T1 sequence (O42713 whole entry): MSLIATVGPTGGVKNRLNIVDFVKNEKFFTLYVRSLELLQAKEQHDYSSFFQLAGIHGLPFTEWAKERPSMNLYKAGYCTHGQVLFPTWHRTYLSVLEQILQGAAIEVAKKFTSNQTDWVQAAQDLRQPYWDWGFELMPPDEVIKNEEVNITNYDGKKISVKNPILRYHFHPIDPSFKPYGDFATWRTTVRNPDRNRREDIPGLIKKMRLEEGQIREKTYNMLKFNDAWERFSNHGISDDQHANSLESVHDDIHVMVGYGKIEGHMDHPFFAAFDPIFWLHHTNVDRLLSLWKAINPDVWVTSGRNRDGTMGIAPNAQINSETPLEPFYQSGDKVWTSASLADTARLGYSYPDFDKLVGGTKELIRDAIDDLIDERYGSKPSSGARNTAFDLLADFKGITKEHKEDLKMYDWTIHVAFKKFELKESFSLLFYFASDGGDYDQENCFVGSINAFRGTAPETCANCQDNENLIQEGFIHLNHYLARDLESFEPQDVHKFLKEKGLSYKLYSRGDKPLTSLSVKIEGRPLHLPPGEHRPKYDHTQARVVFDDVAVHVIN

Tyrosinase [2] = target: T1, Tyrosinase; assay: Inhibition of mushroom tyrosinase using L-DOPA as substrate assessed as diphenolase activity
Tyrosinase [3] = target: T1, Tyrosinase; assay: Inhibition of mushroom tyrosinase using L-tyrosine as substrate assessed as monophenolase activity
Tyrosinase [4] = target: T1, Tyrosinase; assay: Inhibition of mushroom tyrosinase using L-DOPA as substrate incubated for 20 mins
Tyrosinase [5] = target: T1, Tyrosinase; assay: Inhibition of mushroom tyrosinase incubated for 20 mins by spectrophotometric assay
Tyrosinase [6] = target: T1, Tyrosinase; assay: Inhibition of mushroom tyrosinase using L-DOPA as substrate incubated for 10 mins by spectrophotometric assay
Tyrosinase [7] = target: T1, Tyrosinase; assay: Inhibition of mushroom tyrosinase using L-tyrosine as substrate assessed as […] activity by microplate reader analysis
Tyrosinase [8] = target: T1, Tyrosinase; assay: Inhibition of mushroom tyrosinase using L-dopa as substrate assessed as monophenolase activity by microplate reader analysis
B16 = assay: Anti-melanoma activity against mouse B16 cells assessed as inhibition of tyrosinase activity incubated for 48 hrs by spectrophotometer analysis relative to control; assay type: functional
Mushroom tyrosinase [9] = target: T2, Mushroom tyrosinase (Agaricus bisporus, UniProt O42713+Q00024+C7FF04+C7FF05); assay: Inhibition of mushroom diphenolase
Mushroom tyrosinase [10] = target: T2, Mushroom tyrosinase; assay: Inhibition of mushroom monophenolase
[11] = Antioxidant activity assessed as DPPH radical scavenging activity incubated for 30 mins under dark condition by microplate reader analysis; assay type: functional
Tyrosinase [12] = target: T1, Tyrosinase; assay: Inhibition of mushroom tyrosinase using L-DOPA as substrate incubated for 20 mins by microplate reader analysis
Tyrosinase [13] = target: T1, Tyrosinase; assay: Inhibition of mushroom tyrosinase using L-dopa as substrate assessed as diphenolase activity preincubated for 20 mins followed by substrate addition measured after 10 mins by plate reader analysis
Tyrosinase [14] = target: T1, Tyrosinase; assay: Inhibition of mushroom tyrosinase using L-tyrosine as substrate assessed as monophenolase activity preincubated for 20 mins followed by substrate addition measured after 10 mins by plate reader analysis
Tyrosinase [15] = target: T1, Tyrosinase; assay: Inhibition of mushroom tyrosinase using L-DOPA as substrate incubated for 10 mins
Tyrosinase [16] = target: T1, Tyrosinase; assay: Inhibition of mushroom tyrosinase using L-dopa as substrate incubated for 30 mins by microplate reader analysis
Tyrosinase [17] = target: T1, Tyrosinase; assay: Inhibition of mushroom tyrosinase using L-DOPA as substrate incubated for 30 mins
Tyrosinase [18] = target: T1, Tyrosinase; assay: Inhibition of mushroom tyrosinase using L-DOPA as substrate preincubated for 10 mins followed by substrate addition measured after 5 mins
Tyrosinase [19] = target: T1, Tyrosinase; assay: Inhibition of mushroom tyrosinase using L-tyrosine as substrate preincubated for 15 mins followed by substrate addition measured after 30 mins by plate reader analysis
[20] = Antioxidant activity assessed as DPPH radical scavenging activity incubated for 30 mins under dark condition; assay type: functional
Tyrosinase [21] = target: T1, Tyrosinase; assay: Inhibition of mushroom tyrosinase using L-DOPA as substrate incubated for 5 mins
Tyrosinase [22] = target: T1, Tyrosinase; assay: Inhibition of mushroom tyrosinase using L-tyrosine as a substrate incubated for 10 mins
Tyrosinase [23] = target: T1, Tyrosinase
Description: Inhibition of mushroom tyrosinase using L-DOPA as substrate assessed as inhibition constant preincubated for 15 mins followed by substrate addition measured after 2 mins by microtitre plate reader analysis

Tyrosinase [24] = target: T1, Tyrosinase; assay: Inhibition of mushroom tyrosinase using L-DOPA as a substrate assessed as inhibition constant incubated for 5 mins by microplate reader analysis
Tyrosinase [25] = target: T1, Tyrosinase; assay: Inhibition of mushroom tyrosinase using L-dopa as substrate assessed as diphenolase activity incubated for 30 mins by spectrophotometric method
Tyrosinase [26] = target: T1, Tyrosinase; assay: Inhibition of mushroom tyrosinase using L-dopa as substrate assessed as monophenolase activity incubated for 30 mins by spectrophotometric method
Tyrosinase [27] = target: T1, Tyrosinase; assay: Inhibition of mushroom tyrosinase using L-DOPA as substrate by HTS analysis
Tyrosinase [28] = target: T3, Tyrosinase (Homo sapiens, UniProt P14679); assay: Inhibition of human his tagged tyrosinase expressed in HEK293 cells using L-DOPA as substrate incubated for 10 mins by microtitre plate reader analysis; assay type: cell-based
T3 sequence (P14679 whole entry): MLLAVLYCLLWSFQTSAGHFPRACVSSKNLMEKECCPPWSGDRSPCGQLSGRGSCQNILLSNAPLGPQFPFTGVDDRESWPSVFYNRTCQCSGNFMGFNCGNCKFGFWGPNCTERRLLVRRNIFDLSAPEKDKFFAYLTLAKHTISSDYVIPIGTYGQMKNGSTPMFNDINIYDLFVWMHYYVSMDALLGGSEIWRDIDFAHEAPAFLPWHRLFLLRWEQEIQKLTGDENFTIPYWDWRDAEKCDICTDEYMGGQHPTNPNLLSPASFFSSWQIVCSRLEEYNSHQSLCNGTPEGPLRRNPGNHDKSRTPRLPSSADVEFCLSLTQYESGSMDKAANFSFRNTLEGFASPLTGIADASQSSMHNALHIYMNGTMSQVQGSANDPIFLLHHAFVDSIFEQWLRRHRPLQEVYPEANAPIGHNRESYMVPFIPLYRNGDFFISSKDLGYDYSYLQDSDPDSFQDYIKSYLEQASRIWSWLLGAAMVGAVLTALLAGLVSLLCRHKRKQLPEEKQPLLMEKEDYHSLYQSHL

Tyrosinase [29] = target: T1, Tyrosinase; assay: Inhibition of mushroom tyrosinase using L-dopa as substrate assessed as inhibition constant incubated for 30 mins by spectrophotometric analysis
Tyrosinase [30] = target: T1, Tyrosinase; assay: Inhibition of mushroom tyrosinase using L-dopa as substrate incubated for 30 mins by spectrophotometric analysis
Tyrosinase [31] = target: T1, Tyrosinase; assay: Inhibition of mushroom tyrosinase using L-DOPA as substrate preincubated for 10 mins followed by substrate addition measured after 20 mins by microtitre plate analysis
Tyrosinase [32] = target: T1, Tyrosinase; assay: Inhibition of mushroom tyrosinase using L-tyrosine as substrate assessed as […] activity incubated for 20 mins by microplate reader analysis
Tyrosinase [33] = target: T1, Tyrosinase; assay: Inhibition of mushroom tyrosinase using L-DOPA as substrate assessed as monophenolase activity incubated for 20 mins by microplate reader analysis
Tyrosinase [34] = target: T1, Tyrosinase; assay: Inhibition of mushroom tyrosinase using L-DOPA as substrate assessed as inhibition constant preincubated with compound for 15 mins by microplate reader analysis
Tyrosinase [35] = target: T1, Tyrosinase; assay: Inhibition of mushroom tyrosinase using L-DOPA as substrate preincubated with compound for 15 mins by microplate reader analysis
Tyrosinase [36] = target: T1, Tyrosinase; assay: Inhibition of mushroom tyrosinase using L-DOPA as substrate preincubated for 10 mins followed by substrate addition measured after 20 mins
Tyrosinase [37] = target: T1, Tyrosinase; assay: Inhibition of mushroom tyrosinase using L-dopa as substrate by spectrophotometric analysis
B16-F10 = assay: Inhibition of melanin production in mouse B16-F10 cells assessed reduction in melanin level measured after 72 hrs by ELISA assay relative to control; assay type: functional

COc1ccccc1-n1c(SCC(=O)Nc2ccc(Br)cc2)nnc1-c1ccccc1
IC50 (Tyrosinase [1]): < 0.1 µM

COc1cc(C2CC(c3cc4ccccc4oc3=O)=NN2c2nc(-c3ccc(Br)cc3)cs2)ccc1OCc1ccccc1 (stereo not drawn)
IC50 (Tyrosinase [1]): < 0.1 µM

O=C(OCc1cc(=O)c(O)c[nH]1)[C@H](Cc1ccccc1)NCc1ccccc1
IC50 (Tyrosinase [2]): 8.97 µM | IC50 (Tyrosinase [3]): 1.95 µM

CCOc1cc(/C=N/NC(=O)c2ccc(O)c(OC)c2)ccc1O
IC50 (Tyrosinase [4]): 1.58 µM

O=C(/C=C/c1cccc(Cl)c1)NCCN1CCOCC1
IC50 (Tyrosinase [5]): 15.2 µM

CCOC(OCC)c1ccc(/C=C2\Cc3ccccc3C2=O)cc1
IC50 (Tyrosinase [6]): 6.83 µM

COc1ccccc1/C=C/C=N/Nc1nnc(SCc2cc(=O)c(O)co2)n1C
IC50 (Tyrosinase [7]): 7.5 µM | IC50 (Tyrosinase [8]): 20.5 µM

CC(=O)OC[C@H]1O[C@@H](Oc2ccc(O)cc2)[C@H](O)[C@@H](O)[C@@H]1O
inhibition (INH) (B16): 71.4%

Nc1ccccc1C(=O)O [ANTHRANILIC ACID]
IC50 (Mushroom tyrosinase [9]): 4.72 µM | IC50 (Mushroom tyrosinase [10]): 5.15 µM

CCN(CC)c1ccc(Nc2nc(-c3ccc(O)cc3O)cs2)cc1
IC50 (Mushroom tyrosinase [9]): 10.3 µM | IC50 (Mushroom tyrosinase [10]): 6.2 µM

Cc1cc(OCc2cn(Cc3ccc(F)cc3)nn2)c(C=C2C(=O)NC(=S)NC2=O)cc1Br
EC50 [11]: 39.2 µM | IC50 (Tyrosinase [12]): 24.6 µM

N/C(S)=N/N=C/c1ccc([N+](=O)[O-])cc1
IC50 (Tyrosinase [13]): 1.74 µM | IC50 (Tyrosinase [14]): 0.05 µM

COc1cccc2c1c(C(=O)C(=O)Nc1cc[nH]n1)cn2Cc1ccc(F)cc1
IC50 (Tyrosinase [15]): 224 µM

O=C1OC(c2ccccc2Br)=NC(=S)C1c1nn[nH]n1 (stereo not drawn)
IC50 (Tyrosinase [1]): < 0.1 µM

OCC1CSC(c2ccc(O)cc2O)S1 (stereo not drawn)
IC50 (Tyrosinase [16]): 13.9 µM

O=C(COC(=O)c1ccc(O)cc1O)Oc1ccc2oc(=O)ccc2c1
IC50 (Tyrosinase [17]): 8.96 µM

CC(=O)Nc1ccc(/N=N/c2c(N)nc(N)nc2Cl)cc1
IC50 (Tyrosinase [18]): 24.4 µM

O=C(O)/C=C/c1ccc(O)cc1 [COUMARIC ACID]
IC50 (Tyrosinase [19]): 296 µM

CCOC(OCC)c1ccc(/C=C2\CCC/C(=C\c3ccc(C(OCC)OCC)cc3)C2=O)cc1
IC50 (Tyrosinase [6]): 10.1 µM

CCOC(=O)C1=C(N)Oc2c(ccc3ccccc23)C1c1ccc(N(C)C)cc1 (stereo not drawn)
EC50 [20]: 0.94 mM/L

OC[C@H]1O[C@H](Oc2cc(CCc3ccc(O)cc3O)cc(O[C@H]3O[C@H](CO)[C@@H](O)[C@H](O)[C@H]3O)c2)[C@H](O)[C@@H](O)[C@@H]1O
IC50 (Tyrosinase [21]): 12.8 µM

OC[C@H]1O[C@@H](Oc2ccc(O)cc2)[C@H](O)[C@@H](O)[C@@H]1O [ARBUTIN]
inhibition (INH) (B16): 55.4%

O=C(O)CSc1nnc(NC(=S)Nc2cccc(C(F)(F)F)c2)s1
IC50 (Tyrosinase [22]): 15 µM

CCn1c2ccccc2c2cc(NC(=O)CSc3nc4ccccc4[nH]3)ccc21
Ki (Tyrosinase [23]): 1.64 µM

CC1(C)CC(=O)C2=C(C1)Oc1c(oc(CCl)cc1=O)C2c1ccc(F)cc1 (stereo not drawn)
Ki (Tyrosinase [24]): 4 µM

OC[C@H]1O[C@H](Oc2cc(O)cc(CCc3ccc(O)cc3O)c2)[C@H](O)[C@@H](O)[C@@H]1O
IC50 (Tyrosinase [21]): 2.63 µM

COc1cc(CC2C(=O)Nc3ccccc32)ccc1O (stereo not drawn)
IC50 (Tyrosinase [25]): 59.7 µM | IC50 (Tyrosinase [26]): 63.4 µM

CC(C)C(=O)Nc1nc(-c2ccc(O)cc2O)cs1
IC50 (Tyrosinase [27]): 108 µM

Clc1ccc(Cn2cc(COc3ccc(-c4nc5ccccc5[nH]4)cc3)nn2)cc1Cl
IC50 (Tyrosinase [18]): 9.42 µM

Cc1ccc(NC(=O)CCCN2CCN(C/C=C/c3ccccc3)CC2)c(C)c1
IC50 (Tyrosinase [1]): < 0.1 µM

O=C1/C(=C/c2ccc(O)c(Br)c2)CSc2ccccc21
IC50 (Tyrosinase [16]): 4.1 µM

O=C1N=C(Nc2nc3ccccc3s2)S/C1=C\c1ccc(O)cc1O
IC50 (Tyrosinase [16]): 1.8 µM

Nc1nc(-c2ccc(O)cc2O)cs1
EC50 (Tyrosinase [28]): 245 µM

O=C1/C(=C/c2ccc(O)cc2O)Cc2ccccc21
Ki (Tyrosinase [29]): 2.4 µM | IC50 (Tyrosinase [30]): 1.39 µM

Oc1ccc(/C=N\n2c(Cc3ccccc3F)n[nH]c2=S)cc1
IC50 (Tyrosinase [12]): 6.23 µM

Cc1ccc(C(C)C)cc1NC(=O)COC(=O)/C=C/c1ccc(O)cc1O
IC50 (Tyrosinase [31]): 0.15 µM

O=C(/C=C/c1ccc(O)cc1O)c1cccs1
IC50 (Tyrosinase [32]): 0.013 µM | IC50 (Tyrosinase [33]): 0.93 µM

Nn1c(S)nnc1N/N=C\c1ccccc1O
IC50 (Tyrosinase [12]): 1.52 µM

O=P(O)(c1ccccc1)C(NCc1ccccc1)c1ccccn1 (stereo not drawn)
Ki (Tyrosinase [34]): 76 µM | IC50 (Tyrosinase [35]): 310 µM

Cc1ccc(C(C)C)cc1NC(=O)COC(=O)c1ccc(O)cc1O
IC50 (Tyrosinase [36]): 11 µM

CCCCOC(=O)/C=C/c1ccc(O)cc1
IC50 (Tyrosinase [19]): 69 µM

COc1cc(/C=N/NC(=O)c2ccc(O)c(OC)c2)ccc1O
IC50 (Tyrosinase [4]): 10 µM

COc1cc(/C=C/C(=O)c2ccc(OC)c(OC)c2)ccc1O
IC50 (Tyrosinase [15]): 0.038 µM

COc1cc([N+](=O)[O-])ccc1/C=C/C(=N\O)c1cc2ccccc2cc1O
IC50 (Tyrosinase [30]): 4.77 µM

CCOC(OCC)c1ccc(/C=C/C(=O)C2CCc3ccccc3C2=O)cc1 (stereo not drawn)
IC50 (Tyrosinase [6]): 5.84 µM

COc1cc(/C=C/C(=O)c2cc(OC)c(OC)c(-c3cc(C(=O)/C=C/c4ccc(O)c(OC)c4)cc(OC)c3OC)c2)ccc1O
IC50 (Tyrosinase [15]): 0.022 µM

O=C1CSC(c2ccccc2O)N1c1ccc(-c2ccc(N3C(=O)CSC3c3ccccc3O)cc2)cc1 (stereo not drawn)
IC50 (Tyrosinase [37]): 0.61 µM

COc1ccc(-c2n[nH]c(S)n2)cc1
inhibition (INH) (B16-F10): 55%
